# Calls of active or inactive are those of the source. The calls are words filed in the database; no cut-off is given here.
# Key:
# [1] = system: Human immunodeficiency virus 1; experiment: Antiviral activity against HIV1 NL4-3 infected in human CEM-GXR cells assessed as inhibition of viral replication at 1.25 to 10 uM measured after 3 days by Flowcytometry assay; format: functional, organism-based; conditions: dose 1.25-10 µM, time 3.0 day
# [2] = Cytotoxicity against human CEM-GXR cells infected with HIV1 NL4-3 assessed as cell viability measured after 3 days by Flowcytometry assay; format: cell-based; conditions: 72 h
# [3] = Cytotoxicity against human CEM-GXR cells infected with HIV1 NL4-3 assessed as cell viability at 1.25 to 10 uM measured after 3 days by Flowcytometry assay; format: cell-based; conditions: 72 h, dose 1.25-10 µM, time 3 day
# [4] = system: Human immunodeficiency virus 1; experiment: Antiviral activity against HIV1 NL4-3 infected in human CEM-GXR cells assessed as inhibition of viral replication measured after 3 days by Flowcytometry assay; format: functional, organism-based; conditions: Human immunodeficiency virus 1, NL4-3, CEM-GXR, 72 h
# [5] = Cytotoxicity against human CEM-GXR cells infected with wild type HIV1 2948 harboring protease G48V/L90M mutant assessed as cell viability measured after 72 hrs by Flow cytometry assay; format: cell-based
# [6] = Therapeutic index, ratio of CC50 for human CEM-GXR cells infected with HIV1 11845 harboring integrase G140S/Q148H mutant to EC50 for HIV1 11845 harboring integrase G140S/Q148H mutant infected in human CEM-GXR cells; format: toxicity, cell-based; conditions: read-out: TI
# HeLa = experiment: Cytotoxicity against human HeLa cells infected with HIV1 assessed as cell viability upto 5 uM measured after 24 hrs by plate reader method; format: cell-based
# [7] = system: Human immunodeficiency virus 1; experiment: Antiviral activity against antiretroviral-resistant HIV1 11845 harboring integrase G140S/Q148H mutant infected in human CEM-GXR cells assessed as inhibition of viral replication measured after 3 days by Flowcytometry assay; format: functional, organism-based; conditions: Human immunodeficiency virus 1, 11845, CEM-GXR, 72 h
# [8] = Cytotoxicity against human CEM-GXR cells infected with wild type HIV1 11845 harboring […] G140S/Q148H mutant assessed as cell viability measured after 72 hrs by Flow cytometry assay; format: cell-based
# [9] = system: Human immunodeficiency virus 1; experiment: Antiviral activity against antiretroviral-resistant HIV1 2948 harboring protease G48V/L90M mutant infected in human CEM-GXR cells assessed as inhibition of viral replication measured after 3 days by Flowcytometry assay; format: functional, organism-based; conditions: Human immunodeficiency virus 1, 2948, CEM-GXR, 72 h
# [10] = system: Human immunodeficiency virus 1; experiment: Antiviral activity against HIV1 infected in HeLa cells assessed as decrease of unspliced RNA levels at 1.25 uM measured after 24 hrs by RT-qPCR method; format: functional, organism-based
# [11] = system: Human immunodeficiency virus 1; experiment: Antiviral activity against wild type HIV1 97USSN54 infected in human CEM-GXR cells assessed as inhibition of viral replication measured after 3 days by Flowcytometry assay; format: functional, organism-based; conditions: Human immunodeficiency virus 1, 97USSN54, CEM-GXR, 72 h
# [12] = system: Human immunodeficiency virus 1; experiment: Antiviral activity against antiretroviral-resistant HIV1 443 harboring reverse transcriptase K103N/D67N/K70R/Y115F/Q151M/M184V/K219Q mutant infected in human CEM-GXR cells assessed as inhibition of viral replication measured after 3 days by Flowcytometry assay; format: functional, organism-based; conditions: Human immunodeficiency virus 1, 443, CEM-GXR, 72 h
# [13] = system: Human immunodeficiency virus 1; experiment: Antiviral activity against wild type HIV1 NL4-3 infected in human CEM-GXR cells assessed as inhibition of viral replication measured after 3 days by Flowcytometry assay; format: functional, organism-based; conditions: Human immunodeficiency virus 1, NL4-3, CEM-GXR, 72 h
# [14] = Cytotoxicity against human PBMC cells assessed as cell viability measured after 11 days by Viacount assay; format: cell-based; conditions: time 11 day
# [15] = system: Human immunodeficiency virus 1; experiment: Antiviral activity against HIV1 infected in HeLa cells assessed as decrease of singly spliced RNA levels at 1.25 uM measured after 24 hrs by RT-qPCR method; format: functional, organism-based
# [16] = system: Human immunodeficiency virus 1; experiment: Antiviral activity against HIV1 infected in HeLa cells assessed as decrease of multiply spliced RNA levels at 5 uM measured after 24 hrs by RT-qPCR method; format: functional, organism-based
# [17] = Anti-HIV activity against HIV1 3B infected in human PBMC assessed as inhibition of viral infection measured after 11 days by ELISA method; format: functional, cell-based; conditions: Human immunodeficiency virus 1, 3B, 264 h
# [18] = system: Human immunodeficiency virus 1; experiment: Antiviral activity against HIV1 infected in HeLa cells assessed as decrease of singly spliced RNA levels at 5 uM measured after 24 hrs by RT-qPCR method; format: functional, organism-based
# [19] = system: Human immunodeficiency virus 1; experiment: Antiviral activity against HIV1 infected in HeLa cells assessed as decrease of unspliced RNA levels at 5 uM measured after 24 hrs by RT-qPCR method; format: functional, organism-based
# [20] = Cytotoxicity against human CEM-GXR cells infected with wild type HIV1 MVC-res harboring envelope V3 loop A19T/L20F/T22A/E25D/I26V mutant assessed as cell viability measured after 72 hrs by Flow cytometry assay; format: cell-based
# [21] = Cytotoxicity against human CEM-GXR cells infected with wild type HIV1 97USSN54 assessed as cell viability measured after 72 hrs by Flow cytometry assay; format: cell-based
# [22] = system: Human immunodeficiency virus 1; experiment: Anti-HIV activity against HIV1 Bal infected in human PBMC assessed as inhibition of viral infection measured after 11 days by ELISA method; format: functional, organism-based; conditions: Human immunodeficiency virus 1, Bal, 264 h
# [23] = system: Human immunodeficiency virus 1; experiment: Anti-HIV activity against HIV1 provirus infected in HeLa cells assessed as reduction of GAG production in presence of Doxycycline measured after 24 hrs by GFP flourescence based plate reader method; format: functional, organism-based
# [24] = Therapeutic index, ratio of CC50 for human CEM-GXR cells infected with wild type HIV1 97USSN54 to EC50 for wild type HIV1 97USSN54 infected in human CEM-GXR cells; format: toxicity, cell-based; conditions: read-out: TI
# [25] = Therapeutic index, ratio of CC50 for human CEM-GXR cells infected with HIV1 MVC-res harboring envelope V3 loop A19T/L20F/T22A/E25D/I26V mutant to EC50 for HIV1 MVC-res harboring envelope V3 loop A19T/L20F/T22A/E25D/I26V mutant infected in human CEM-GXR cells; format: toxicity, cell-based; conditions: read-out: TI
# [26] = Therapeutic index, ratio of CC50 for human CEM-GXR cells infected with wild type HIV1 NL4-3 to EC50 for wild type HIV1 NL4-3 infected in human CEM-GXR cells; format: toxicity, cell-based; conditions: read-out: TI
# [27] = Cytotoxicity against human CEM-GXR cells infected with wild type HIV1 443 harboring reverse transcriptase K103N/D67N/K70R/Y115F/Q151M/M184V/K219Q mutant assessed as cell viability measured after 72 hrs by Flow cytometry assay; format: cell-based
# [28] = system: Human immunodeficiency virus 1; experiment: Antiviral activity against HIV1 infected in HeLa cells assessed as decrease of multiply spliced RNA levels at 1.25 uM measured after 24 hrs by RT-qPCR method; format: functional, organism-based
# [29] = Therapeutic index, ratio of CC50 for human CEM-GXR cells infected HIV1 2948 with harboring protease G48V/L90M mutant to EC50 for HIV1 2948 harboring protease G48V/L90M mutant infected in human CEM-GXR cells; format: toxicity, cell-based; conditions: read-out: TI
# [30] = Therapeutic index, ratio of CC50 for human CEM-GXR cells infected with HIV1 443 harboring reverse transcriptase K103N/D67N/K70R/Y115F/Q151M/M184V/K219Q mutant to EC50 for HIV1 443 harboring reverse transcriptase K103N/D67N/K70R/Y115F/Q151M/M184V/K219Q mutant; format: toxicity; conditions: read-out: TI
# [31] = system: Human immunodeficiency virus 1; experiment: Antiviral activity against antiretroviral-resistant HIV1 MVC-res harboring envelope V3 loop A19T/L20F/T22A/E25D/I26V mutant infected in human CEM-GXR cells assessed as inhibition of viral replication measured after 3 days by Flowcytometry assay; format: functional, organism-based
# [32] = Cytotoxicity against human CEM-GXR cells infected with wild type HIV1 NL4-3 assessed as cell viability measured after 72 hrs by Flow cytometry assay; format: cell-based
# [33] = system: Human immunodeficiency virus; experiment: Antiviral activity against HIV; format: functional, organism-based; conditions: Human immunodeficiency virus 1
# [34] = Cytotoxicity against human CEM-GXR cells infected with HIV1 NL4-3 assessed as cell viability at 10 uM measured after 72 hrs by Flowcytometry assay; format: cell-based
compound,measurement,setting,value
Cc1ccc(C(=O)Nc2nc3c(Cl)cccc3s2)s1,Activity,[1],inactive
O=C(Nc1nsc2ccc([N+](=O)[O-])cc12)c1ccc([N+](=O)[O-])s1,Activity,[1],inactive
O=C(Nc1nc2ccc(C(F)(F)F)cc2s1)c1ccc([N+](=O)[O-])s1,Activity,[1],Active
same,EC50,[2],500 nM
O=C(Nc1cccc2ncccc12)c1ccc([N+](=O)[O-])s1,Activity,[1],inactive
O=C(Nc1nc2ccc(Cl)cc2s1)c1ccc([N+](=O)[O-])s1,Activity,[3],Toxic
same,Activity,[1],Active
N#Cc1ccc(C(=O)Nc2nc3c(Cl)cccc3s2)s1,EC50,[4],3000 nM
O=C(Nc1cncc2ccccc12)c1ccc([N+](=O)[O-])s1,Activity,[1],inactive
O=C(Nc1nc2cc(Br)ccc2s1)c1ccc([N+](=O)[O-])s1,Activity,[3],Toxic
same,Activity,[1],Active
O=C(Nc1nc2c(Cl)cc(Cl)cc2s1)c1ccc([N+](=O)[O-])s1,Activity,[3],Toxic
same,Activity,[1],Active
O=C(Nc1nc2c(Cl)cccc2s1)c1cccs1,Activity,[1],inactive
O=C(Nc1nc2ccc(C(F)(F)F)cc2s1)c1cnc(C(F)(F)F)s1,CC50 at 72 h,[5],12000 nM
same,selectivity ratio,[6],59
same,Activity,HeLa,Toxic
same,EC50,[7],200 nM
same,CC50 at 72 h,[8],12000 nM
same,EC50,[9],230 nM
same,Activity,[10],Active
same,EC50,[4],470 nM
same,EC50,[11],180 nM
same,EC50,[12],240 nM
same,EC50,[13],250 nM
same,CC50 at 264 h,[14],2510 nM
same,Activity,[15],Active
same,Activity,[16],inactive
same,EC50,[17],740 nM
same,Activity,[18],inactive
same,Activity,[19],inactive
same,CC50 at 72 h,[20],12000 nM
same,CC50 at 72 h,[21],12000 nM
same,EC50,[22],250 nM
same,Activity,[23],Dose-Dependent Effect
same,selectivity ratio,[24],68
same,selectivity ratio,[25],56
same,selectivity ratio,[26],49
same,CC50 at 72 h,[27],12000 nM
same,Activity,[28],Active
same,selectivity ratio,[29],52
same,selectivity ratio,[30],51
same,EC50,[31],220 nM
same,CC50 at 72 h,[32],12000 nM
O=C(Nc1nc2c(Cl)cccc2s1)c1ccc([N+](=O)[O-])s1,Activity,[1],Active
same,EC50,[2],5500 nM
Nc1nc(=O)n([C@@H]2CS[C@H](CO)O2)cc1F [EMTRICITABINE],EC50,[11],30 nM
same,EC50,[13],30 nM
same,CC50 at 264 h,[14],> 10000 nM
same,EC50,[17],5.5 nM
same,CC50 at 72 h,[21],> 100000 nM
same,EC50,[22],2.1 nM
same,selectivity ratio,[24],> 3850
same,selectivity ratio,[26],> 2940
same,CC50 at 72 h,[32],> 100000 nM
O=C(Nc1cnc2ccccc2c1)c1ccc([N+](=O)[O-])s1,Activity,[1],inactive
O=C(Nc1cccc2cccnc12)c1ccc([N+](=O)[O-])s1,Activity,[1],inactive
O=C(Nc1nc2ccc([N+](=O)[O-])cc2s1)c1ccc([N+](=O)[O-])s1,Activity,[1],Active
same,EC50,[2],2400 nM
O=[N+]([O-])c1ccc(/C=C/c2ccc3ccccc3n2)s1,EC50,[33],500 nM
O=C(Nc1nc2c(Cl)cccc2s1)c1cnc(C(F)(F)F)s1,CC50 at 72 h,[5],95700 nM
same,selectivity ratio,[6],101
same,EC50,[7],960 nM
same,CC50 at 72 h,[8],95700 nM
same,EC50,[9],1170 nM
same,Activity,[34],Non-Toxic
same,EC50,[4],1660 nM
same,EC50,[11],960 nM
same,EC50,[12],1160 nM
same,EC50,[13],1290 nM
same,CC50 at 264 h,[14],9080 nM
same,EC50,[17],1930 nM
same,CC50 at 72 h,[20],95700 nM
same,CC50 at 72 h,[21],95700 nM
same,EC50,[22],240 nM
same,selectivity ratio,[24],100
same,selectivity ratio,[25],99
same,selectivity ratio,[26],74
same,CC50 at 72 h,[27],95700 nM
same,selectivity ratio,[29],82
same,selectivity ratio,[30],83
same,EC50,[31],970 nM
same,CC50 at 72 h,[32],95700 nM
O=C(Nc1ccc(C(F)(F)F)cc1)c1ccc([N+](=O)[O-])s1,Activity,[23],inactive
O=C(Nc1nc2c(Cl)cccc2s1)c1ccc(C(F)(F)F)s1,EC50,[4],5500 nM
O=C(Nc1nc2ccc(OC(F)(F)F)cc2s1)c1ccc([N+](=O)[O-])s1,Activity,[3],Toxic
same,Activity,[1],Active

# Reference: ChEMBL document CHEMBL4837270, “2-Trifluoromethylthiazole-5-carboxamides: Analogues of a Stilbene-Based Anti-HIV Agent that Impact HIV mRNA Processing” (ACS Med Chem Lett, 2021)
